Test results published in patent US20170021014A1, “VACCINE ADJUVANTS FOR CYTOMEGALOVIRUS PREVENTION AND TREATMENT” (THE JOHNS HOPKINS UNIVERSITY, priority 2015, published 2017).

Experiments:
HCMV TB40 = assay: Plaque reduction assay in HFFs, HCMV TB40; format: cell-based, human cytomegalovirus; settings: MDP 10 μg/mL pretreatment 72 h, 100 PFU/well, 10 days
Procedure: A plaque reduction assay was performed in HFFs to determine the effects of MDP treatment either before or after infection on virus replication. HFFs were seeded into 12-well plates (2×10^5 cells/well) and infected with Towne HCMV at approximately 100 plaques/well. After 90 minutes, media were aspirated, and DMEM containing 0.5% carboxymethyl-cellulose (CMC), 4% fetal bovine serum (FBS), and MDP at final concentration of 10 μg/mL were added into duplicate wells. In pretreatment experiments HFFs were first treated with MDP (10 μg/mL) for 72 h after which infection with the Towne or TB40 strains was carried out at approximately 100 plaques/well. After 90 minute adsorption, media were aspirated, and DMEM containing 0.5% CMC and 4% FBS were added into duplicate wells. After incubation at 37° C. for 8 days (Towne) or 10 days (TB40) the overlay was removed and plaques were counted after crystal violet staining.

[1] = test system: HCMV proteins (IE1/2, pp65); assay: Western blot of HCMV proteins in infected HFFs; format: cell-based, human cytomegalovirus
Procedure: Cell lysates containing equivalent amount of proteins were mixed with an equal volume of sample buffer (125 mM Tris-HCL, pH 6.8, 4% SDS, 20% glycerol and 5% β-mercaptoethanol) and boiled at 100° C. for 10 min. Denatured proteins were resolved in Tris-glycine polyacrylamide gels (10-12%) and transferred to polyvinylidine difluoride (PVDF) membranes (Bio-Rad Laboratories, Hercules, Calif.) by electroblotting. Membranes were incubated in blocking solution [5% w/v non-fat dry milk and 0.1% Tween-20 in PBS (PBST)] for 1 h, washed with PBST, and incubated with antibody at 4° C. overnight. Membranes were washed with PBST and incubated with horseradish peroxidase-conjugated secondary antibodies in PBST for 1 h at room temperature. Following washing with PBST, protein bands were visualized by chemiluminescence using SuperSignal West Dura and Pico reagents (Pierce Chemical, Rockford, Ill.). Antibodies for HCMV proteins were used at 1:2000 and included: mouse monoclonal anti-HCMV IE1 & IE2 (MAB810, Millipore, Billerica, Mass.), mouse monoclonal anti-HCMV UL83 (pp65, Vector Laboratories Inc., Burlingame, Calif.), and mouse monoclonal anti-pp52 (UL44, Santa Cruz Biotechnology, Santa Cruz, Calif.). Rabbit polyclonal anti human-NOD2 antibody (H-300, 1:2000), rabbit polyclonal anti-RIPK2 (1:5000), mouse monoclonal anti-NF-KB (p65, 1:1000), rabbit polyclonal anti-IRF3 (1:1000) and mouse monoclonal anti-IRF7 (1:1000) were from Santa Cruz. Rabbit monoclonal anti-Histone H3 (1:2000), rabbit monoclonal anti-pERK1/2 (1:5000), mouse monoclonal anti-total ERK (1:2000), rabbit monoclonal anti-pIκBα (1:2000), mouse monoclonal anti-IκBα, rabbit monoclonal anti-pTBK1 (Ser172), and rabbit monoclonal anti-TBK1 (1:1000) were from Cell Signaling Technology, Beverly, Mass. Horseradish peroxidase (HRP)-conjugated anti-rabbit IgG was from Cell Signaling. […]
Quantitative analysis of proteins detected by immunoblotting was performed using ImageJ 1.48v software (NIH) by determining relative band intensities of individual bands. […]

HFFs = assay: MTT cell viability assay; format: cell-based, Human
Procedure: MTT assay (Sigma-Aldrich) was performed to rule out any cytotoxicity induced by MDP treatment. Cells (HFFs and transduced GIPZ/shIFNβ-HFFs as described below) were pretreated with MDP for 96- and 72 h, respectively and 20 μl/well of MTT [3-(4, 5-Dimethyl-2-thiazolyl)-2, 5-diphenyl-2H-tetrazolim bromide, 5 mg/mL in phosphate buffered saline (PBS)] was added to each well. After shaking plates at 150 rpm for 5 minutes the plates were incubated at 37° C. for 3 hours. Conversion of yellow solution to dark blue formazan by mitochondrial dehydrogenases of living cells was quantified by measuring absorbance at 560 nm.

NOD2 mRNA = assay: qRT-PCR of NOD2 mRNA in HFFs; format: cell-based, Human; settings: for NOD2 induction by MDP: HCMV-infected, 36 hpi
Procedure: Total RNA was isolated from cells using RNAeasy Mini kit (Qiagen, Georgetown, Md.) according to manufacturer's instructions. RevertAid first strand cDNA synthesis kit (Fermentas life sciences, Cromwell Park, Md.) was used to synthesize first strand cDNA from total RNA using oligo-dT primers. Negative reverse-transcriptase (−RT) reactions were included to ensure the specificity of qRT-PCR reactions. Synthesis of first strand cDNA from mRNA template was carried out at 42° C. for 1 h. Quantitative RT-PCR was performed using specific primers and SYBR green (Fermentas life science) with two-step cycling protocol (95° C. for 15 s, 60° C. for 1 min). All reactions were performed in triplicates and GAPDH was used as internal control. The expression level of the tested genes was normalized to the expression of GAPDH.

secreted IFN-β = assay: IFN-β specific ELISA of supernatants; format: cell-based, Human; settings: MDP pretreatment 18 or 72 h, MOI 1, 24 h
Procedure: The effect of MDP pretreatment on levels of secreted IFN-β in supernatants from non-infected or HCMV-infected HFFs was measured by IFN-β specific ELISA kit (PBL Assay Science, Piscataway, N.J.).

clinical isolate of HCMV = assay: Immunofluorescence staining for HCMV IE1/2; format: cell-based, human cytomegalovirus; settings: GIPZ HFFs, MDP pretreatment 72 h, infected 24 h, MOI 1
Procedure: GIPZ control and shIFN-β HFFs were seeded into 96-well plate (1×10^4 cells/well) and pretreated with MDP (10 μg/mL) for 72 h. Cells were then infected with a clinical isolate of HCMV at MOI 1. Twenty-four hours after infection, cells were fixed with methanol/acetone (1:1) at −20° C. for 10 min. Cells were then blocked with 7.5% BSA for 30 min. and incubated for 1 h with anti-human CMV IE1&2 antibody (MAB810) (1:500 in 0.5% BSA). After 3 washes with PBS, cells were incubated with FITC-anti mouse antibody (F8521, Sigma, 1:500, in 0.5% BSA) for 1 h. Then cells were washed 3 times with PBS and counterstained with propidium iodide (Invitrogen) for nuclear staining. Images were taken using Nikon Eclipse TS100 microscope.

SMILES: CC(=O)N[C@H]1C(O)O[C@H](CO)[C@@H](O)[C@@H]1O[C@H](C)C(=O)N[C@@H](C)C(=O)N[C@H](CCC(=O)O)C(N)=O (mixture of isomers) [MDP, Muramyl dipeptide]
- plaque number reduction (HCMV TB40): ~70%
- decrease in pp65 expression ([1]; MDP treatment after infection, MOI 0.1, 96 hpi): approximately 75%
- reduction in pp65 expression ([1]; MDP treatment after infection, higher MOI (MOI 1), 96 hpi): 40%
- HCMV replication, dose response ([1]; MOI 0.1, IE1/2 and pp65 expression after 4 days): suppressed HCMV replication (MOI 0.1) in a dose-dependent manner
- cellular toxicity (MTT) (HFFs; HFFs treated 96 h): no toxicity at any of the concentrations used
- toxicity / cell growth (MTT) (HFFs; control GIPZ or shIFN-β KD HFFs, MDP 10 μg/mL 72 h): No toxicity or difference in cell growth
- NOD2 induction by MDP (NOD2 mRNA; MOI 0.1, MDP after infection): 6.5 fold
- NOD2 induction by MDP (NOD2 mRNA; MOI 1, MDP after infection): 2.5 fold
- NOD2 mRNA induction (NOD2 mRNA; MDP pretreatment 72 h then HCMV Towne MOI 1 for 24 h (infection only 50-fold)): 265 fold
- induction of NOD2 mRNA (NOD2 mRNA; non-infected HFFs, MDP 10 μg/mL, 36 h): 4 fold
- induction of NOD2 mRNA (NOD2 mRNA; non-infected cells, 72 h MDP treatment then 24 h medium): 3 fold
- secreted IFN-β (secreted IFN-β): increased with the duration of MDP-pretreatment
- nuclear IE1/2 expression (clinical isolate of HCMV): reduced IE1/2 expression
